These results are taken from patent publication EP0906913A1, “Pteridinderivatives as NO synthase inhibitors” (Werner, Ernst, priority 1997, dated 1999).

The test system of test [1] is kultivierten, cytokin-stimulierten Mausfibroblasten. Nature of the test: Nitrite in supernatant of cultured cytokine-stimulated mouse fibroblasts (Griess reaction). To be noted: for inhibition at 2.5 µM / inhibition at 10 µM / inhibition at 25 µM / inhibition at 100 µM / inhibition at 250 µM: Fibroblast, read-out: Hemmung; for inhibition at 2.5 µM / inhibition at 10 µM / inhibition at 25 µM / inhibition at 100 µM / inhibition at 250 µM / Nitrit im Überstand: 96 h, Interferon-gamma, TNF-alpha, LPS stimulated. It counts as cell-based, Maus. The protocol: Zum Nachweis der Wirksamkeit einer Verbindung der vorliegenden Erfindung an kultivierten Zellen wurden Mausfibroblasten nach Werner-Felmayer et al., (Ref. 9) gewonnen und in RPMI 1640 Medium (Schoeller Pharma, Wien, Österreich) mit 20% Hitze-inaktiviertem fötalem Kälberserum (Schoeller Pharma) in einer Dichte von 10^5 Zellen pro ml ausgesät und mit 50 U/ml Mäuse-Interferongamma, 100 U/ml Tumornekrose Faktor-Alpha und 1 µg/ml Lipopolysaccharid (E. coli B55:05) in Gegenwart verschiedener Konzentrationen von Hemmstoffen kultiviert. Nach 96 h im Brutschrank (100% Luftfeuchtigkeit, 37°C, 5% CO2) werden die Überstände gesammelt und mit der Griess-Reaktion auf ihren Gehalt an Nitrit, einem Abbauprodukt von NO, analysiert. Die folgende Tabelle 2 zeigt einen Vergleich von H2aminobiopterin (R1 = R3 = H, R2 = R4 = OH, R5 = CH3), H4aminobiopterin und Beispiel 72 aus DE 4418097: Tabelle 2
In general terms: Nitrite, measured by Griess reagent, commonly stands in for NO production.

Test [2] deals with T1, rekombinante, neuronale, Tetrahydrobiopterin-freie NO-Synthase (Rattus norvegicus, UniProt P29476).
T1 construct: made in house
In words: Inhibition of recombinant neuronal tetrahydrobiopterin-free NO synthase ([3H]citrulline formation from [3H]arginine). It is filed as biochemical. To be noted: for NO-Synthase -Aktivität / inhibition at 0.01 µM / inhibition at 0.1 µM / inhibition at 1 µM / inhibition at 10 µM / inhibition at 100 µM / inhibition at 1000 µM: 10 µM Tetrahydrobiopterin, 10 min, 37°C; for inhibition at 0.01 µM / inhibition at 0.1 µM / inhibition at 1 µM / inhibition at 10 µM / inhibition at 100 µM / inhibition at 1000 µM: read-out: Hemmung. The protocol:
Zum Nachweis der Wirkung der Hemmstoffe eignet sich z.B. rekombinante, neuronale, Tetrahydrobiopterin-freie NO-Synthase, welche nach der Methode von List et al. 1996 (Ref. 7) hergestellt wird. Die NO-Synthaseaktivität wird dabei in Abhängigkeit von der Zugabe des NO-Synthase-Hemmstoffes durch die Bildung von [2,3,4,5-^3H]Citrullin aus [2,3,4,5-^3H]Arginin nach der Methode von Mayer et al. (Ref. 8) bestimmt. Dazu wird in 0.1 ml folgendes Gemisch für 10 min bei 37°C inkubiert: 0.1 µg NO-Synthase, 0.1mM [2,3,4,5-^3H]-L-Arginin (ca. 60000 cpm), 0.5 mM CaCl2, 10 µg/ml Calmodulin, 0.2 mM NADPH (Nicotinamidadenindinukleotid, reduzierte Form), 10 µM Tetrahydrobiopterin, 0-1000 µM NO-Synthase-Inhibitor (z.B. H2aminobiopterin), 5 µM FAD (Flavinadenindinucleutid), 5 µM FMN (Flavinmononucleotid), und 0.2 mM CHAPS (3-[(3-cholamidopropyl)dimethyl-amonio]-1-propansulfonat). Die Reaktion wird durch Zugabe von 0.9 ml 20 mM Natriumacetatpuffer, pH = 5,5, der 1 mM L-Citrullin enthält, gestoppt. Das Gemisch wird anschließend auf Ionenaustauschersäulen, die mit dem Material DOWEX AG50W-X8 gefüllt sind, aufgetragen, und das Eluat sowie die Waschflüssigkeit (1 ml Wasser) werden aufgefangen. 7 ml Scintillationscocktail werden zugegeben und die Radioaktivität, die ein Maß für die NO-Synthaseaktivität ist, wird mit einem Szintillationszähler bestimmt. Tabelle I

Molecules are shown by their SMILES.

For `C[C@H](O)[C@H](O)C1=Nc2c(N)nc(N)nc2NC1` [H2aminobiopterin, 2,4-diamino-7,8-dihydro-6(L-erythro-1,2-dihydroxylpropyl) pteridin], in test [1] (inhibitor 2.5 µM), the inhibition at 2.5 µM is 35% and the “Nitrit im Überstand” value is 6.2 µM. Moreover, in test [1] (inhibitor 10 µM), the inhibition at 10 µM turned out to be 78% and the “Nitrit im Überstand” value is listed as 2.1 µM. Also, in test [1] (inhibitor 25 µM), the inhibition at 25 µM was 99% and the “Nitrit im Überstand” value stood at 0.1 µM. Further, in test [1] (inhibitor 100 µM), the inhibition at 100 µM came to 100% and the “Nitrit im Überstand” value is on record as 0.0 µM. In test [1] (inhibitor 250 µM), the inhibition at 250 µM amounted to 100% and the “Nitrit im Überstand” value amounted to 0.0 µM. Moreover, the “Wirksamkeit an kultivierten Zellen (Vergleich)” value in test [1] (in words, compared with previously known pteridine derivatives) was “deutlich wirksamer”. Further, the “Hemmung des Enzyms (Vergleich)” value in test [2] (in words, compared with 6R-H4aminobiopterin) was “in der gleichen Größenordnung”. Further, the “Wirksamkeit am Enzym (Vergleich)” value in test [2] (in words, compared with Beispiel 72 of DE 4418097) is given as “wesentlich wirksamer”. In addition, in test [2] (inhibitor 0.01 µM), the “NO-Synthase -Aktivität” value was 294 nmol/mg/min and the inhibition at 0.01 µM came out at 0.3%. In addition, in test [2] (inhibitor 0.1 µM), the “NO-Synthase -Aktivität” value was 283 nmol/mg/min and the inhibition at 0.1 µM is 4%. In test [2] (inhibitor 1.0 µM), the “NO-Synthase -Aktivität” value was 242 nmol/mg/min and the inhibition at 1 µM was found to be 18%. Moreover, in test [2] (inhibitor 10. µM), the “NO-Synthase -Aktivität” value worked out at 110 nmol/mg/min and the inhibition at 10 µM was determined as 64%. Further, in test [2] (inhibitor 100. µM), the “NO-Synthase -Aktivität” value was 48 nmol/mg/min and the inhibition at 100 µM was determined as 83%. Besides, in test [2] (inhibitor 1000. µM), the “NO-Synthase -Aktivität” value was found to be 25 nmol/mg/min and the inhibition at 1000 µM is 92%.
Regarding `C[C@H](O)[C@H](O)[C@H]1CNc2nc(N)nc(N)c2N1` [H4aminobiopterin, 2,4-Diamino-5,6,7,8-tetrahydro-6R-(L-erythro-1,2 dihydroxypropyl)pteridin, reference compound], in test [1] (inhibitor 2.5 µM), the inhibition at 2.5 µM was 7% and the “Nitrit im Überstand” value came out at 9.3 µM. Also, in test [1] (inhibitor 10 µM), the inhibition at 10 µM is 36% and the “Nitrit im Überstand” value is on record as 6.4 µM. Also, in test [1] (inhibitor 25 µM), the inhibition at 25 µM amounted to 62% and the “Nitrit im Überstand” value is listed as 3.8 µM. In test [1] (inhibitor 100 µM), the inhibition at 100 µM worked out at 96% and the “Nitrit im Überstand” value stood at 0.4 µM. Further, in test [1] (inhibitor 250 µM), the inhibition at 250 µM amounted to 99% and the “Nitrit im Überstand” value worked out at 0.02 µM. Besides, in test [2] (inhibitor 0.01 µM), the “NO-Synthase -Aktivität” value amounted to 279 nmol/mg/min and the inhibition at 0.01 µM is 6%. For the same molecule, in test [2] (inhibitor 0.1 µM), the “NO-Synthase -Aktivität” value amounted to 262 nmol/mg/min and the inhibition at 0.1 µM is 12%. Further, in test [2] (inhibitor 1.0 µM), the “NO-Synthase -Aktivität” value amounted to 181 nmol/mg/min and the inhibition at 1 µM was found to be 39%. Also, in test [2] (inhibitor 10. µM), the “NO-Synthase -Aktivität” value turned out to be 72 nmol/mg/min and the inhibition at 10 µM is 76%. Besides, in test [2] (inhibitor 100. µM), the “NO-Synthase -Aktivität” value was 35 nmol/mg/min and the inhibition at 100 µM worked out at 88%. For the same molecule, in test [2] (inhibitor 1000. µM), the “NO-Synthase -Aktivität” value is 24 nmol/mg/min and the inhibition at 1000 µM turned out to be 92%.
